According to patent publication US6855713B2, “Benzimidazole derivatives, a process for their manufacture and use as a medicine” (Boehringer Ingelheim Pharma KG, priority 2001, dated 2005):
pIC50: −log10 of the molar value.

Biological target: T1, rh beta trypsin (Homo sapiens, UniProt P20231)
T1 construct: purchased Promega
Assay: Trypsin (tryptase) inhibition, cleavage of N-p-Gly-Pro-Lys-para-nitroaniline measured at 405 nm
Assay type: biochemical
Conditions: in vitro tests on the pro-drugs of formula IIA; read-out: IC50
Method: The compounds of the invention are notable for their effective trypsin-inhibiting property. The said capacity to inhibit trypsin activity was determined in accordance with the following trial descriptions.
The determinations are carried out in tris-HCl buffer (100 mM), that also contained calcium (5 mM) and heparin ([…]), at a pH of 7.4. As the standard, rh beta trypsin is used, this is commercially obtainable, for example, from Promega. A suitable substrate is N-p-Gly-Pro-Lys-para-nitroaniline in a concentration of 0.6 mM. The substrate is digested with trypsin, whereby p-nitro-aniline is obtained that can be measured at 405 nm. Normally, an incubation period of 5 minutes and an incubation temperature of 37° C. is chosen. For the enzyme activity, 0.91 U/ml are used. The determination is carriedout in an auto-analyser (Cobas Bio) from the firm Hoffmann LaRoche. The potential inhibitor substances are used in the screening procedure in concentrations of 10 μM, and the inhibition of the trypsin is given in percentages. At an inhibition in excess of 70%, the IC50 is determined (the concentration at which 50% of the enzyme activity is inhibited). After a 5-minute pre-incubation of the potential inhibiting substance, the substrate is added for the start of the reaction, whereby the production of p-nitro-aniline is taken, after 5 minutes, after testing the linearity, as a measure of the enzyme activity.

T1 sequence (P20231 31-275): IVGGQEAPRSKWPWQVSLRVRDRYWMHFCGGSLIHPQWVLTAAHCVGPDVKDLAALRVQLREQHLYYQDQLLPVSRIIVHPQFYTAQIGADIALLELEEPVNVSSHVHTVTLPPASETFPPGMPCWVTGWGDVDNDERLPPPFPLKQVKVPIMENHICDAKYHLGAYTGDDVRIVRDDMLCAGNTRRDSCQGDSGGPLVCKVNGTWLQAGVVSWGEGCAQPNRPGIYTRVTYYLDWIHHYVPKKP

In order of rising pIC50:
1. CCCCCCCCOC(=O)N=C(N)c1ccc(CCc2nc3cc(C(=O)N4CCC(NC(=O)c5ccccc5)CC4)ccc3n2C)cc1 [IIA10]  5.10
2. CCOC(=O)N=C(N)c1ccc(CCc2nc3cc(C(=O)N4CCC(NC(=O)c5ccccc5)CC4)ccc3n2C)cc1 [IIA6]  5.60
3. Cn1c(CCc2ccc(C(N)=NC(=O)c3ccccc3)cc2)nc2cc(C(=O)N3CCC(NC(=O)c4ccccc4)CC3)ccc21 [IIA17]  6.44

Same assay, conditions: in vitro; tris-HCl buffer pH 7.4 with calcium and heparin; substrate 0.6 mM; 5 minutes, 37° C.; read-out: Trypsin-inhibiting property

`CN(C(=O)Nc1cccc(Cl)c1Cl)C1CCN(C(=O)c2ccc3c(c2)nc(CCc2ccc(C(=N)N)cc2)n3C)CC1` [Example 55, 2-[2-(4-Amidinophenyl)-ethyl]-1-methyl-benzimidazole-5-yl-carboxylic acid-{4-[3-(2,3-dichloro)-phenyl-1-methyl-ureido]piperidinyl)-amide] and `Cn1c(CCc2ccc(C(=N)N)cc2)nc2cc(C(=O)N3CCC(Nc4cccc(Cl)c4Cl)CC3)ccc21` [Example 65] fall in the same range of pIC50: 7.70 to 9.00 for the first, 7.70 to 9.00 for the second.

`CC(=O)c1cccc(NC(=O)NC2CCN(C(=O)c3ccc4c(c3)nc(CCc3ccc(C(=N)N)cc3)n4C)CC2)c1` [Example 56, 2-[2-(4-Amidinophenyl)-ethyl]-1-methyl-benzimidazole-5-yl-carboxylic acid-{4-[3-(3-acetyl)-phenylureido]piperidinyl}-amide] and `Cn1c(CCc2ccc(C(=N)N)cc2)nc2cc(C(=O)N3CCC(NC(=O)Nc4cccc(C(=O)O)c4)CC3)ccc21` [Example 62, [2-(4-Amidinophenyl)-ethyl]-1-methyl-benzimidazole-5-yl-carboxylic acid-{4-[3-(3-carboxyphenyl)-ureido]-piperidinyl}-amide] fall in the same range of pIC50: 7.70 to 9.00 for the first, 7.70 to 9.00 for the second.

Compared with `COC(=O)c1cccc(NC(=O)NC2CCN(C(=O)c3ccc4c(c3)nc(CCc3ccc(C(=N)N)cc3)n4C)CC2)c1` [Example 57, 2-[2-(4-Amidinophenyl)-ethyl]-1-methyl-benzimidazole-5-yl-carboxylic acid-{4-[3-(3-methoxycarbonyl)phenylureido]piperidinyl}-amide], `Cn1c(CCc2ccc(C(=N)N)cc2)nc2cc(C(=O)N3CCC(NC(=O)Nc4cccc(Cl)c4)CC3)ccc21` [Example 60, 2-[2-(4-Amidinophenyl)-ethyl]-1-methyl-benzimidazole-5-yl-carboxylic acid-{4-[3-(3-chloro)-phenylureido]piperidinyl}-amide] is higher in pIC50: 7.70 to 9.00 for the first, 9.00 to 10.00 for the second.

`CSc1cccc(NC(=O)NC2CCN(C(=O)c3ccc4c(c3)nc(CCc3ccc(C(=N)N)cc3)n4C)CC2)c1` [Example 58, 2-[2-(4-Amidinophenyl)-ethyl]-1-methyl-benzimidazole-5-yl-carboxylic acid-{4-[3-(3-methylsulfanyl)phenylureido]piperidinyl}-amide] and `Cn1c(CCc2ccc(C(=N)N)cc2)nc2cc(C(=O)N3CCC(NC(=O)c4cc(Cl)ccc4Cl)CC3)ccc21` [Example 64] fall in the same range of pIC50: 9.00 to 10.00 for the first, 9.00 to 10.00 for the second.

`COC(=O)c1cccc(NC(=O)N(C)C2CCN(C(=O)c3ccc4c(c3)nc(CCc3ccc(C(=N)N)cc3)n4C)CC2)c1` [Example 61, 2-[2-(4-Amidinophenyl)-ethyl]-1-methyl-benzimidazole-5-yl-carboxylic acid-{4-[3-(3-methoxycarbonyl)-phenyl-1-methyl-ureido]piperidinyl)-amide] and `Cc1c(Cl)cccc1S(=O)(=O)N(C)C1CCN(C(=O)c2ccc3c(c2)nc(CCc2ccc(C(=N)N)cc2)n3C)CC1` [Example 170] fall in the same range of pIC50: 7.70 to 9.00 for the first, 7.70 to 9.00 for the second.

First: Cn1c(CCc2ccc(C(=N)N)cc2)nc2cc(C(=O)N3CCC(NC(=O)c4cccc(Cl)c4Cl)CC3)ccc21 [Example 67]
Second: CN(C1CCN(C(=O)c2ccc3c(c2)nc(CCc2ccc(C(=N)N)cc2)n3C)CC1)S(=O)(=O)c1cccc(Cl)c1Cl [Example 171]
The pIC50 of the first is higher: 9.00 to 10.00 for the first, 7.30 to 7.70 for the second. The first is the more potent here.

`CN(C1CCN(C(=O)c2ccc3c(c2)nc(CCc2ccc(C(=N)N)cc2)n3C)CC1)S(=O)(=O)/C=C/c1ccccc1` [Example 166] and `Cn1c(CCc2ccc(C(=N)N)cc2)nc2cc(C(=O)N3CCC(NS(=O)(=O)/C=C/c4ccccc4)CC3)ccc21` [Example 167] fall in the same range of pIC50: 7.70 to 9.00 for the first, 7.70 to 9.00 for the second.

First: CCCCS(=O)(=O)N(C)C1CCN(C(=O)c2ccc3c(c2)nc(CCc2ccc(C(=N)N)cc2)n3C)CC1 [Example 168]
Second: CCCCS(=O)(=O)NC1CCN(C(=O)c2ccc3c(c2)nc(CCc2ccc(C(=N)N)cc2)n3C)CC1 [Example 173]
The pIC50 of the first is higher: 7.70 to 9.00 for the first, 7.30 to 7.70 for the second. The first is the more potent here.

`CN(C1CCN(C(=O)c2ccc3c(c2)nc(CCc2ccc(C(=N)N)cc2)n3C)CC1)S(=O)(=O)c1cccc2ccccc12` [Example 169] and `Cn1c(CCc2ccc(C(=N)N)cc2)nc2cc(C(=O)N3CCC(NC(=O)Cc4cccc5ccccc45)CC3)ccc21` [Example 189] fall in the same range of pIC50: 7.70 to 9.00 for the first, 7.70 to 9.00 for the second.

With `N=C(N)c1ccc(CCc2nc3cc(C(=O)N4CCC(NC(=O)c5ccccc5)CC4)ccc3n2C2CC2)cc1` [Example 196] the pIC50 was 7.30 to 7.70.
